Measured values published in publication PMC4368200, “Triclabendazole Sulfoxide Causes Stage-Dependent Embryolethality in Zebrafish and Mouse In Vitro” (PLoS ONE, 2015).
“Also recorded” adds a separate entry of the source. Where two headings read alike, the source gives them in different places. Marks after values point to notes of the source that are not given here.

Columns and labels:
zebrafish embryos = test: Zebrafish embryo test (ZFET); type: in vivo, Danio rerio; details: for Dysmorphogenic embryos / Morphological score: 50 hpf
Experimental: The day before the test, adult male and female zebrafish were transferred (1:1) to breeding tanks (Aquaneering, San Diego, California). Artificial plants and marbles were used as spawning substrate. Spawning and fertilization took place within 30 min after the onset of light in the morning. Eggs were collected and extensively cleaned with ISO-standard 7346 water diluted 1:5 using deionized water. Fertilized eggs were selected under a dissection stereomicroscope (Motic SMZ168, Motic China group, LTD., China). The eggs presenting overt anomalies like asymmetries, formation of vesicles or damaged membranes were discarded.
Exposure and evaluation of eggs was performed as described before with slight variations. At 2 hours post-fertilization (hpf) fertilized eggs were selected and transferred to 6-well plates (Greiner Bio-one, Germany). Ten embryos were randomly distributed into wells and filled with 5 mL of freshly prepared test solutions. TCBZ, TCBZSO, ABZ and ABZSO were dissolved in DMSO and subsequently diluted in 0.3x Danieau’s buffer to a final DMSO concentration of 0.05% (v/v). Embryos were incubated at 26 ± 1°C with a dark-light cycle of 10–14 h for 48 h. Embryolethality was determined at 8 hpf on the basis of egg coagulation, at 26 hpf by the absence of tail detachment or somites formation, and at 50 hpf by the absence of heartbeat. Developmental and teratogenic effects were assessed at 50 hpf by the total morphological score described in [32].
The working concentrations for ZFET experiments were 0.1 μM, 0.5 μM, 1 μM, 2.5 μM and 5 μM for TCBZ studies and 0.5 μM, 1 μM, 2.5 μM, 5 μM, 10 μM and 50 μM for TCBZSO. The experiments with ABZ were performed including concentrations of 0.025 μM, 0.05 μM, 0.1 μM, 0.3 μM and 0.5 μM and for ABZSO they included 1 μM, 6 μM, 12 μM, 25 μM and 50 μM.

[1] = Plasma Cmax in humans after therapeutical TCBZ dose (literature); type: in vivo; details: 10 mg/kg
[2] = set-up: method as in PMID 3824395; details: 200mg/kg dose; cited from earlier work
[3] = set-up: method as in PMID 7905812; details: rabbits, single 10 mg/kg TCBZ dose; transformed to μM from ref 40; read-out: TCBZSO maximum plasma concentration (Cmax); cited from earlier work
[4] = set-up: method as in PMID 20128898; details: sheep, TCBZ 10 mg/kg; calculated from ref 41; read-out: TCBZSO Cmax; cited from earlier work
[5] = set-up: method as in PMID 21337234; details: cows, 12 mg/kg dose; calculated from ref 39; read-out: TCBZSO Cmax; cited from earlier work

In the case of `CSc1nc2cc(Cl)c(Oc3cccc(Cl)c3Cl)cc2[nH]1` [TCBZ, 5-chloro-6-(2,3-dichlorophenoxy)-2-(methylthio)benzimidazole], the “Frequency of dysmorphogenesis: Developmental delay” value (zebrafish embryos; 0.1 µM) is reported as 6.7%, the “Frequency of dysmorphogenesis: Flexion” value (zebrafish embryos; 0.1 µM) is reported as 3.3% and the “Frequency of dysmorphogenesis: Head-body pigmentation” value (zebrafish embryos; 0.1 µM) is reported as 6.7%. It also gave a Lethality (zebrafish embryos; 0.1 μM, 2-50 hpf) of 0%, a Dysmorphogenic embryos (zebrafish embryos; 0.1 μM) of 6.7% and a Morphological score (zebrafish embryos; 0.1 μM) of 34.8 ± 1.8. For the same molecule, the “Frequency of dysmorphogenesis: Cardiac oedema” value (zebrafish embryos; 0.5 µM) was 13.3%, the Lethality (zebrafish embryos; 0.5 μM, 2-50 hpf) was 0% and the Dysmorphogenic embryos (zebrafish embryos; 0.5 μM) was 13.3%. The Morphological score (zebrafish embryos; 0.5 μM) was 34.8 ± 0.0, the “Adverse effects in zebrafish embryos” value (zebrafish embryos; 1 μM) was “did not present any adverse effects” and the “Frequency of dysmorphogenesis: Brain necrosis” value (zebrafish embryos; 1 μM) was 10%. The “Frequency of dysmorphogenesis: Cardiac oedema” value (zebrafish embryos; 1 μM) was 10%, the “Frequency of dysmorphogenesis: Flexion” value (zebrafish embryos; 1 μM) was 6.7% and the Lethality (zebrafish embryos; 1 μM, 2-50 hpf) was 0%. For the same molecule, the Dysmorphogenic embryos (zebrafish embryos; 1 μM) was 13.3%, the Morphological score (zebrafish embryos; 1 μM) was 35.8 ± 0.4 and the “Frequency of dysmorphogenesis: Developmental delay” value (zebrafish embryos; 2.5 µM) was 50%. The “Frequency of dysmorphogenesis: Flexion” value (zebrafish embryos; 2.5 µM) was 20%, the “Frequency of dysmorphogenesis: Head-body pigmentation” value (zebrafish embryos; 2.5 µM) was 50% and the Lethality (zebrafish embryos; 2.5 μM, 2-50 hpf) was 0%. The Dysmorphogenic embryos (zebrafish embryos; 2.5 μM) was 60 ^* %, the Morphological score (zebrafish embryos; 2.5 μM) was 33.0 ± 3.4 and the Lethality (zebrafish embryos; 5 μM, 2-50 hpf) was 100 ^* %. The “ZFET LOAEC dysmorphogenesis” value (zebrafish embryos; 2-50 hpf) was 2.5 µM, the “ZFET LOAEC embryonic differentiation (total morphological score)” value (zebrafish embryos; 2-50 hpf) was 2.5 μM and the “ZFET LOAEC lethality” value (zebrafish embryos; 2-50 hpf) was 5 µM. The “Plasma concentration, times lower than triclabendazole sulfoxide” value [1] was “approximately 30 times” and the Teratogenicity in vivo [2] was “not teratogenic at a 200mg/kg dose [23]”.
In the case of `C[S+]([O-])c1nc2cc(Oc3cccc(Cl)c3Cl)c(Cl)cc2[nH]1` (centres unmarked) [TCBZSO, Triclabendazole sulfoxide], the Cmax [3] is given as 33 µM, the Lethality (zebrafish embryos; 0.5 μM, 2-50 hpf) is given as 17% and the Dysmorphogenic embryos (zebrafish embryos; 0.5 μM) is given as 0%. The Morphological score (zebrafish embryos; 0.5 μM) was 36.0 ± 0.0, the Lethality (zebrafish embryos; 1 μM, 2-50 hpf) was 10% and the Dysmorphogenic embryos (zebrafish embryos; 1 μM) was 0%. For the same molecule, the Morphological score (zebrafish embryos; 1 μM) was 36.0 ± 0.0, the Lethality (zebrafish embryos; 2.5 μM, 2-50 hpf) was 20% and the Dysmorphogenic embryos (zebrafish embryos; 2.5 μM) was 0%. For the same molecule, the Morphological score (zebrafish embryos; 2.5 μM) was 36.0 ± 0.0, the Lethality (zebrafish embryos; 5 μM, 2-50 hpf) was 7% and the Dysmorphogenic embryos (zebrafish embryos; 5 μM) was 0%. The Morphological score (zebrafish embryos; 5 μM) was 36.0 ± 0.0, the Lethality (zebrafish embryos; 10 μM, 2-50 hpf) was 35 ^* % and the Dysmorphogenic embryos (zebrafish embryos; 10 μM) was 0%. For the same molecule, the Morphological score (zebrafish embryos; 10 μM) was 36.0 ± 0.0, the Lethality (zebrafish embryos; 50 μM, 2-50 hpf) was 100 ^* % and the “ZFET LOAEC dysmorphogenesis” value (zebrafish embryos; 2-50 hpf) was “No dysmorphogenesis were observed; also recorded: not dysmorphogenic”. The “ZFET LOAEC lethality” value (zebrafish embryos; 2-50 hpf) was 10 µM, the “ZFET NOAEC” value (zebrafish embryos; 2-50 hpf) was 5 µM and the “Embryolethal concentration, times lower than ABZSO concentrations killing the embryos” value (zebrafish embryos; ZFET) was “five”. For the same molecule, the “Embryolethal concentration, times lower than ABZSO concentrations producing malformations” value (zebrafish embryos; ZFET) was 2.5 times, the Cmax [4] was 37.3 µM and the Cmax [5] was 71.3 µM.
